From publication PMC2954893, “MHC Class I Bound to an Immunodominant Theileria parva Epitope Demonstrates Unconventional Presentation to T Cell Receptors” (PLoS Pathogens, 2010)

Legend:
[1] = tested on: N*01301; assay: RMA-S MHC stabilization assay (peptide binding, pBL50); design: species or system cattle; conditions: RMA-S cells transfected with N*01301; peptides 0.1 nM to 1 mM; surface N*01301 detected with mAb IL-A88 by flow; reference peptide TIMPKDIQL
Protocol: A 9mer self-peptide (TIMPKDIQL) shown to have a high binding affinity to N*01301 was used throughout as a positive control in flow-based MHC stabilization assays (see Materials and Methods for details). In order to systematically explore the relative contribution to binding affinity made by amino acids at each position, a sequential alanine-scan of the self-peptide was made (Fig. 1A). Dose/FI curves were created for each peptide (using peptides at concentrations between 0.1 nM and 1 mM) and presented as semi-logarithmic plots as in previous studies ([25], supporting information (SI) Fig. S1). The high binders have low half-maximal binding level (BL50) values (high pBL50) and the low binders have high BL50 values (low pBL50). […]
RMA-S is a mouse lymphoma cell line with a deficiency in MHC class I antigen processing which has been used extensively to study binding of peptides to MHC class I [37]. […] Results are expressed as fluorescence index (FI) values. These were calculated as the test mean fluorescence intensity (MFI) minus the no-peptide isotype control MFI divided by the no-peptide N*01301-stained control MFI minus the no-peptide isotype control MFI. The half-maximal binding level (BL50), which is the peptide concentration yielding the half-maximal FI of the reference peptide in each assay, was calculated and presented as pBL50 (–logBL50). […]

[2] = tested on: Tp1_214–224-specific CD8+ T cell clones; assay: 4-hour 111Indium release cytotoxicity assay with peptide-pulsed target cells; type: cell-based, cattle; conditions: 22 CD8+ T cell clones; example in Fig S6
Source text: Twenty-two Tp1_214–224-specific CD8^+ T cell clones, derived from 2 T. parva-immune animals (641 and 633), were examined for their ability to recognize a series of Ala-substituted versions of Tp1_214–224 (as detailed in Fig 1), using a cytotoxicity assay. All clones gave near maximal levels of killing of cells pulsed with the native peptide (ranging from 21% to 100% for different clones) down to a concentration of 10 pg/ml (example shown in Fig S6). The results obtained with the Ala-substituted peptides tested at 1 ng/ml (i.e. well above the minimal concentration required to obtain maximal killing), are summarized in Fig 5. The most striking finding was the abolition (or near abolition) of recognition by all T cell clones of 2 or more of the peptides substituted at positions 6–9. Based on major effects on recognition of peptides substituted at positions 6, 7 and 8, the 22 clones fell into 4 groups each with broadly similar specificity. Nine clones were profoundly influenced by residues 6 and 8, seven clones by residues 7 and 8, four clones by residue 7 and two clones by residue 8. […] Substitutions at positions 3 and 4 also had substantial effects on recognition by some clones.
Figure 5 Effects of single alanine substitutions in the Tp1_214–224 epitope on recognition by specific CD8^+ T cell clones. […]

[3] = tested on: responding T cells; conditions: T. parva-immune A18-homozygous animals; cited from earlier work
Source text: Several CD8^+ T cell epitopes in T. parva have been identified recently, [17], [18]. […] This allele is expressed alone on the haplotype designated A18, which is common in the British Friesian breed. Although this is not the only single gene class I MHC haplotype in cattle, it remains an unu ...

For TIMPKDIQL, the “binding to N*01301 (pBL50 class)” value [1] was “high (for high binding >5 (BL50 <10^−5))”.

In the case of VGYPKVKEEML [Tp1_214–224], the “peptide concentration down to which all clones gave near maximal killing” value [2] is given as 10 pg/mL and the “share of responding T cells specific for the peptide” value [3] is given as “over 75%”.
